The values that follow come from patent publication US20200383905A1 (priority 2015, published 2020).

Structures can show the parent of a compound that is named as a salt. Where two headings read alike, the source gives them in different places.

The conditions of series [1]: mean cumulative doses 449 to 868.3 mg over 24, 36 and 48 h; cited from earlier work.
Series [2] relates to experienced opioid abusers. The following applies: tramadol 100 and 200 mg IV, cited from earlier work; for Ratings of feel drug effect compared to placebo / Ratings of liking: morphine 10 and 20 mg IV over 5 minutes; for Ratings of feel drug effect compared to placebo: 10 experienced opioid abusers.
The next series concerns rats and dogs. As to conditions: repeat-dose; cited from earlier work.
A short description of series [3]: Example 5: multiple-dose 3-way crossover PK study of two IV regimens vs 100 mg oral Q6h. The following applies: for Cmax: human, plasma, iv, 50 mg, 50 mg IV regimen; for AUCtau 1: first dosing interval. The source says: The term “STD” as used herein means standard deviation. […] The term “Css” means steady-state concentration. The term “Cmax” means maximum concentration. The term “AUC” means area under the curve. […] The term “PIT” means peak to trough.

The conditions of series [4]: cited from earlier work.
The conditions of series [5]: in vivo; cited from earlier work.
For series [6] the following is noted: oral administration; cited from earlier work.
Series [7] is described as follows: Observed steady-state PK of oral tramadol Q6h (threshold PK parameters). The following applies: for AUC / Cmax: human, plasma, po.
In another series the test system is μ opioid. As to conditions: animal model; cited from earlier work.
The test system of another series is animal model. The following applies: cited from earlier work.
Another series relates to postoperative pain. The following applies: IV or IM intermittent injection, dose titrated to pain response; cited from earlier work.
Setting [8] is: plasma tramadol, 50 mg IV at h 0, 2, 4 then q4h, mean.
Where [9] appears, read: plasma tramadol, 75 mg IV at h 0, 3, 6 then q6h, mean.
Setting [10] is: plasma tramadol, 100 mg oral q6h, mean.
[11] abbreviates: plasma 0-desmethyltramadol, tramadol 50 mg IV at h 0, 2, 4 then q4h, mean.
The mark [12] stands for this setting: plasma 0-desmethyltramadol, tramadol 75 mg IV at h 0, 3, 6 then q6h, mean.
Setting [13] is: plasma 0-desmethyltramadol, tramadol 100 mg oral q6h, mean.
[14] abbreviates: 60 mg oral tramadol dose, by extrapolation.
The mark [15] stands for this setting: 100 mg oral tramadol Q6h, steady-state, geometric mean, observed.
The mark [16] stands for this setting: 120 mg oral tramadol dose, by extrapolation.

One may read the Cmax as the maximum level reached in the sampled fluid or tissue. By AUC is commonly meant the area under the concentration-time curve, a measure of exposure.

As for `COc1cccc([C@]2(O)CCCC[C@H]2CN(C)C)c1` (racemic) [Tramadol, (±)cis-2-[(dimethylamino)methyl]-1-(3-methoxyphenyl) cyclohexanol hydrochloride], in series [1], the Serious adverse effects result was “no serious adverse effects were observed”. Moreover, the “Ratings of feel drug effect compared to placebo” value in series [2] is “significantly increased ratings”. Besides, in series [2], the Ratings of liking result is on record as “neither dose of tramadol increased ratings”. Also, the “Dose with behavioral/clinical signs and convulsions” value in the series on rats and dogs is on record as over 25 mg/kg/day. Further, the Cmax was about 273 ng/mL in series [3] (Mean Cmax after the first dose, plasma tramadol); about 451 ng/mL in series [3] (Mean Cmax after the second dose, plasma tramadol); about 666 ng/mL in series [3] (Mean Cmax concentration after the third administered dose, plasma tramadol); 280 ± 49 ng/mL in series [4] (100 mg p.o.); 340 ng/mL in series [7] (50 mg); 408 ng/mL in series [7] (60 mg). For the same compound, the Cmax in series [7] (100 mg) was found to be 676 ng/mL; in series [7] (120 mg), 811 ng/mL. Also, the C48 in series [3] (setting [8]) is 448 ng/mL; in [3] (setting [9]), 354 ng/mL; in [3] (setting [10]), 497 ng/mL. Also, the “Cmax(2-4)” value in series [3] (setting [8]) is on record as 479 ng/mL. For the same compound, the “P/T Ratio First” value in [3] (setting [8]) was 1.4566; in [3] (setting [9]), 2.0658; in [3] (setting [10]), 1.9824. The “P/T Ratio Last” value in series [3] (setting [8]) is on record as 1.6370; in series [3] (setting [9]), 2.3692; in series [3] (setting [10]), 1.4400. In addition, the AUC0-24h in series [4] (100 mg i.v.) was 3709 ± 977 ng·h/mL; in [4] (100 mg p.o.), 2488 ± 774 ng·h/mL. Also, the Vd in [4] (100 mg i.v.) is 203 L; in [4] (100 mg p.o.), 306 L. Besides, the t1/2 in [4] (100 mg i.v.) is given as 5.2 h. In addition, the “Distribution half-life, initial phase” value in [4] (IV administration) is 18.6 ± 10.2 min. Also, the “Half-life of slower distribution phase” value in [4] (IV administration) is 1.7 ± 0.4 h. Besides, the “Absolute bioavailability with continuous dosing” value in series [4] (oral, continuous dosing (Liao 1992)) is listed as 90-100%. Also, the “Time to reach steady-state” value in series [5] was 42 to 48 h. For the same compound, in series [6], the “Fertility or teratogenic effects” value was “no safety concerns with respect to fertility or teratogenic effects”. Besides, the AUC in series [7] (50 mg) was 1640 ng·h/mL; in [7] (100 mg) it was 3230 ng·h/mL; in [7] (120 mg), 3880 ng·h/mL.

With `CN(C)C[C@H]1CCCC[C@]1(O)c1cccc(O)c1` [M1, 0-desmethyltramadol], the “Potency in μ opioid binding, times more potent than the parent compound” value in the series with μ opioid was 200 times. In addition, the “AUCtau 1” value is 39.93 ng·h/mL in series [3] (setting [11]), 108.3 ng·h/mL in [3] (setting [12]) and 272.1 ng·h/mL in [3] (setting [13]). The compound also registered an AUCtau n in series [3] (plasma 0-desmethyltramadol, tramadol 50 mg IV at h 0, 2, 4 then q4h, last dosing interval, mean) of 355.6 ng·h/mL. Besides, the C48 in series [3] (setting [11]) was found to be 81.7 ng/mL; in series [3] (setting [12]), 75.9 ng/mL; in [3] (setting [13]) it was 111 ng/mL. The “Cmax(42-48)” value in series [3] (plasma 0-desmethyltramadol, tramadol 100 mg oral q6h, steady-state, mean) is “about 146 ng/mL”. Also, the “Potency in producing analgesia, times more potent than the parent compound” value with animal model is 6 times. For the same compound, the “M1 AUC6” value in series [7] (50 mg oral tramadol dose) is 491 ng·h/mL; in series [7] (setting [14]), 589 ng·h/mL; in [7] (setting [15]), 668 ng·h/mL; in series [7] (setting [16]), 802 ng·h/mL. For the same compound, the “M1 Cmax” value is given as 96 ng/mL in series [7] (50 mg oral tramadol dose), 115 ng/mL in series [7] (setting [14]), 125 ng/mL in series [7] (setting [15]) and 150 ng/mL in series [7] (setting [16]).

In the case of `CN1CC[C@]23c4c5ccc(O)c4O[C@H]2[C@@H](O)C=C[C@H]3[C@H]1C5` [morphine], the “Ratings on the ARCI-MBG scale” value in series [2] (morphine 20 mg IV over 5 minutes) was “increased ratings on the ARCI-MBG scale”. In series [2], the “Ratings of feel drug effect compared to placebo” value is reported as “significantly increased ratings” and the Ratings of liking result is listed as “significantly increased ratings”. Also, the “Reduction of pain intensity after 4 to 6 hours” value with postoperative pain is on record as 69.8%.
